Series [1] can be described thus: Intravaginal administration of VitAD3E to cows, biochemical changes in blood (Comparative Example 1). The conditions noted are these: intravaginal VitA 10,000,000 IU + VitD3 5,000,000 IU + VitE 920 IU in 8 mL with 20% ethanol per cow; two Holstein cows. As to the method:
Vitamin A, vitamin D3, and vitamin E were administered to the vaginal cavities of cows to observe biochemical changes in blood after administration in the same manner as in Example 1 except that test drugs, test contents, and biochemical examination items of blood were as described in the following (1) to (3).
• Vitamin A (VitA; bulk for drug production, liquid); • Vitamin D3 (VitD3; bulk for drug production, liquid); and • Vitamin E (VitE; bulk for drug production, liquid). (2) Test Contents • VitAD3E test: intravaginal administration of VitA (10,000,000 IU)+VitD3 (5,000,000 IU)+VitE (920 IU) brought up to 8 mL per cow with 20% ethanol. (3) Biochemical Examination Items of Blood • Control test: VitA, 25-hydroxyvitamin D3 (25-OHD3), VitE, calcium (Ca), inorganic phosphorus (iP), and magnesium (Mg); and • VitAD3E test: VitA, 25-OHD3, and VitE.
The shifts of VitA, 25-OHD3, and VitE concentrations in blood by the intravaginal administration of VitAD3E were observed by the above-described procedure.

Series [2] is classed as in vivo, cow. The conditions noted are these: intravaginal 1 μg/kg 1α-VD3; two Holstein cows. From the text:
Biochemical changes in blood were observed by administering 1α-hydroxyvitamin D3 to the vaginal cavities of cows.
Test animals used were two Holstein dairy cows (Cow A and Cow B) described below. During a test period, the cows were raised by the free grazing of hay (free water drinking) in a field paddock as well as feeding with 2 kg/day of formula feed (64.1% TDN, 13.6% CP, 0.2% Ca, 0.09% Mg, and 1.39% K in DM).
Cow A: 35months old, female, single birth, ovariectomized, 560 kg
Cow B: 34months old, female, single birth, ovariectomized, 580 kg
The following test drug was used: • 1α-hydroxyvitamin D3 (1α-VD3; manufactured by Nisshin Pharma Co., Ltd., powder).
Test contents and schedules were as follows: • 1. Control test: intravaginal administration of 4 mL of 20% ethanol (for 1 week); and • 2. 1α-VD3 test: intravaginal administration of 1 μg/kg (by body weight) of 1α-VD3 dissolved in 4 mL of 20% ethanol (for 2 weeks).
Intravaginal administration was performed by the following procedure:
The above-described reagent was prepared on ice water and then administered, with a 10-mL plastic syringe, to a deep region in the vagina of the test cows previously allowed to urinate and vulva skin was immediately closed with an instant adhesive.
In each test, blood was collected immediately before administration (0 hour) and at 0.5, 1, 2, 3, 6, 12, 24, 48, and 72 hours (hrs) after administration. […]

For `C=C1CC[C@H](O)C/C1=C/C=C1\CCC[C@]2(C)[C@@H]([C@H](C)CCCC(C)C)CC[C@@H]12` [vitamin D3, Vitamin D3], in series [1], the “intravaginal absorption of the drug” value is on record as “No evidence that administered drugs were absorbed from the vaginal wall was confirmed”. With Vitamin E, the “intravaginal absorption of the drug” value in series [1] is listed as “No evidence that administered drugs were absorbed from the vaginal wall was confirmed”.

For `C=C1/C(=C\C=C2/CCC[C@]3(C)[C@@H]([C@H](C)CCCC(C)C)CC[C@@H]23)C[C@@H](O)C[C@@H]1O` [1α-VD3, 1α-hydroxyvitamin D3], the “effect on Ca metabolism” value in series [2] was “affecting Ca metabolism”.

The record behind these values is patent publication US20060270640A1, “Method of preventing, medicating, and/or treating hypocalcemia of domestic mammal” (Mercian Corporation, priority 2004, published 2006).
